Read-outs that look alike come from different tables or passages of the source.
Experiments:
[1] = target: endoproteinase Glu-C (Endo Glu-C) (Staphylococcus aureus, UniProt P0C1U8); conditions: pH 8
[2] = human, plasma
[3] = target: P/Q type Ca channels (Rattus norvegicus, UniProt P54282); format: binding
[4] = target: T1, N-type voltage-sensitive calcium channels (Rattus norvegicus, UniProt Q02294); format: binding
T1 construct: Rats were sacrificed by cervical dislocation and their brains removed and immediately frozen in liquid nitrogen; from tissue; host or cells: rat brain membrane

[5] = test system: bovine adrenal chromaffin cells; format: cell-based
[6] = target: human noradrenaline transporter (NET) (human) (UniProt P23975); experiment: displacement of [3H]nisoxetine from COS-7 hNET membranes
[7] = target: human noradrenaline transporter (NET) (human) (UniProt P23975); experiment: as above; remark: listed apart in the source
[8] = target: N-type voltage-sensitive calcium channel (rat brain membrane) (rat) (UniProt Q02294)

Sequence of human noradrenaline transporter (NET) (human) (P23975 whole entry): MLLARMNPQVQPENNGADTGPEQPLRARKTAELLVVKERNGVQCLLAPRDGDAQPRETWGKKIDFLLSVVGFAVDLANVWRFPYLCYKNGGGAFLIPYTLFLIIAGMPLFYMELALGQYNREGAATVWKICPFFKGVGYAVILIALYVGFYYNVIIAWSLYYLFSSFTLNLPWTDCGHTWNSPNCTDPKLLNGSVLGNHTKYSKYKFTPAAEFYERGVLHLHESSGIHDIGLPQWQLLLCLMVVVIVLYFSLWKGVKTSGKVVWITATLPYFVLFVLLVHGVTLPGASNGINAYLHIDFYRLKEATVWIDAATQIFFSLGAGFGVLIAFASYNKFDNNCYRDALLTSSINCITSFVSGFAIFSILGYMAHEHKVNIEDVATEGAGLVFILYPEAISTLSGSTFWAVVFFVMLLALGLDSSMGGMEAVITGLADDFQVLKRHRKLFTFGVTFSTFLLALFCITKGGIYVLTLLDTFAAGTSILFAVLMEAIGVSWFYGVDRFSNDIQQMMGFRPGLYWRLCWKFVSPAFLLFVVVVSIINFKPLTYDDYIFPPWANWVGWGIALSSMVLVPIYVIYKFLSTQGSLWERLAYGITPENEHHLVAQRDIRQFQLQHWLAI
T1 sequence (Q02294 whole entry, looked up): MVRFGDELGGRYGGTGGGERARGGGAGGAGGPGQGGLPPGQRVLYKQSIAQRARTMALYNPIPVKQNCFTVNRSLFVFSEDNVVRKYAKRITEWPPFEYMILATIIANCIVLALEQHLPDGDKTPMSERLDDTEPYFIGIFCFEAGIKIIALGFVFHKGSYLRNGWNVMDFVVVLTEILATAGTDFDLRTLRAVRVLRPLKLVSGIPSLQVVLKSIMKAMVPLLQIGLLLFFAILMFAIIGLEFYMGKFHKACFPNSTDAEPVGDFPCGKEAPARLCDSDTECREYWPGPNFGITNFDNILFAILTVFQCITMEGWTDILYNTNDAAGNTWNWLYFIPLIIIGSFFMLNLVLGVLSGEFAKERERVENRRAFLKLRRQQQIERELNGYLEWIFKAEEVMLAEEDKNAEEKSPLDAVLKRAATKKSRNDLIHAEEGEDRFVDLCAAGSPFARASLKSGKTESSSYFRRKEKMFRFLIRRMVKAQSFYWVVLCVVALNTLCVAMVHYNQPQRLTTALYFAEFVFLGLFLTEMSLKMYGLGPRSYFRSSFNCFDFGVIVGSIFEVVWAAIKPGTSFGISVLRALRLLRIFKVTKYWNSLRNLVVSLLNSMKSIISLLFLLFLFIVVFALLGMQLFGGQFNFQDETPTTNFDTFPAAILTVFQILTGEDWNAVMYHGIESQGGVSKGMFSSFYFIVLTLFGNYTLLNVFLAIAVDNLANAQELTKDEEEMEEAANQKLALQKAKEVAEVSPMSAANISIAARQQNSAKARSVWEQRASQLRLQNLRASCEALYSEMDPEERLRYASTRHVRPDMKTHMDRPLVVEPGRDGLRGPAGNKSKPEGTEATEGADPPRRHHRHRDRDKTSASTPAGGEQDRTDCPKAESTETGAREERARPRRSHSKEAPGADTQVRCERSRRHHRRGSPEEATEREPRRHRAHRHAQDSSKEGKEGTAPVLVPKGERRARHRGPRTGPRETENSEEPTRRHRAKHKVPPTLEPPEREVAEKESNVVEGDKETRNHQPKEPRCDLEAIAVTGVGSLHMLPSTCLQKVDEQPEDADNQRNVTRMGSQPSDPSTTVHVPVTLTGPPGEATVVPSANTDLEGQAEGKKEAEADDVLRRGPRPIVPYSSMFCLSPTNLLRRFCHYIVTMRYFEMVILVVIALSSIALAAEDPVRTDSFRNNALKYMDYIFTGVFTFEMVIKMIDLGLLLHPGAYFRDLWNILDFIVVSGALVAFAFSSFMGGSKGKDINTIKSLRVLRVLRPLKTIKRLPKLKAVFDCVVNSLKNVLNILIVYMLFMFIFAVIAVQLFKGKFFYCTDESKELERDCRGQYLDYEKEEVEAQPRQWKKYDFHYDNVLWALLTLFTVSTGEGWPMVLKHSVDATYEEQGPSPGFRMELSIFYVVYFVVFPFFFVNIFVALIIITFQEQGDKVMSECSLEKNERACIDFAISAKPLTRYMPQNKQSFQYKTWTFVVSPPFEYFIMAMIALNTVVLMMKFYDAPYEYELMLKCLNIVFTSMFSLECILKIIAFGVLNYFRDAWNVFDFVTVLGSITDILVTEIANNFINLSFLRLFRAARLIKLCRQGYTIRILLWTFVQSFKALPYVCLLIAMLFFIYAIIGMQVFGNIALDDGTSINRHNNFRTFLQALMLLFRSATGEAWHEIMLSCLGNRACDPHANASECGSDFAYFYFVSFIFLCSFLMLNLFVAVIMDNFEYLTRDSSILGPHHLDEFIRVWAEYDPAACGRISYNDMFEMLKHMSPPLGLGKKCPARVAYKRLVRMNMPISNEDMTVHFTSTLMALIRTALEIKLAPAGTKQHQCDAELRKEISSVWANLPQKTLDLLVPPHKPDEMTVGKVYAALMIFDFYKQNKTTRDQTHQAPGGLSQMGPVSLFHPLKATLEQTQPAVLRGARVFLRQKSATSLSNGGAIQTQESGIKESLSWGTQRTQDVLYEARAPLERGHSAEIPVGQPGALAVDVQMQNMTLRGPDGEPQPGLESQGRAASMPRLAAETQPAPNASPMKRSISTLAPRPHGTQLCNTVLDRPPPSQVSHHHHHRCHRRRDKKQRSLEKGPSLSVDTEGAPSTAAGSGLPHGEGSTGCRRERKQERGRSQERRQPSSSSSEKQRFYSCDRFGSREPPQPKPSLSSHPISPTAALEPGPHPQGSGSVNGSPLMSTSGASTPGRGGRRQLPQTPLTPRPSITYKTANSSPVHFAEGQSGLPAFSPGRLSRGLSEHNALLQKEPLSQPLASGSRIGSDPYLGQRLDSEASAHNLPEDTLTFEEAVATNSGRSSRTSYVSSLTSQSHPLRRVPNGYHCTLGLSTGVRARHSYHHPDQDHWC
Sequence of P/Q type Ca channels (P54282 whole entry, looked up): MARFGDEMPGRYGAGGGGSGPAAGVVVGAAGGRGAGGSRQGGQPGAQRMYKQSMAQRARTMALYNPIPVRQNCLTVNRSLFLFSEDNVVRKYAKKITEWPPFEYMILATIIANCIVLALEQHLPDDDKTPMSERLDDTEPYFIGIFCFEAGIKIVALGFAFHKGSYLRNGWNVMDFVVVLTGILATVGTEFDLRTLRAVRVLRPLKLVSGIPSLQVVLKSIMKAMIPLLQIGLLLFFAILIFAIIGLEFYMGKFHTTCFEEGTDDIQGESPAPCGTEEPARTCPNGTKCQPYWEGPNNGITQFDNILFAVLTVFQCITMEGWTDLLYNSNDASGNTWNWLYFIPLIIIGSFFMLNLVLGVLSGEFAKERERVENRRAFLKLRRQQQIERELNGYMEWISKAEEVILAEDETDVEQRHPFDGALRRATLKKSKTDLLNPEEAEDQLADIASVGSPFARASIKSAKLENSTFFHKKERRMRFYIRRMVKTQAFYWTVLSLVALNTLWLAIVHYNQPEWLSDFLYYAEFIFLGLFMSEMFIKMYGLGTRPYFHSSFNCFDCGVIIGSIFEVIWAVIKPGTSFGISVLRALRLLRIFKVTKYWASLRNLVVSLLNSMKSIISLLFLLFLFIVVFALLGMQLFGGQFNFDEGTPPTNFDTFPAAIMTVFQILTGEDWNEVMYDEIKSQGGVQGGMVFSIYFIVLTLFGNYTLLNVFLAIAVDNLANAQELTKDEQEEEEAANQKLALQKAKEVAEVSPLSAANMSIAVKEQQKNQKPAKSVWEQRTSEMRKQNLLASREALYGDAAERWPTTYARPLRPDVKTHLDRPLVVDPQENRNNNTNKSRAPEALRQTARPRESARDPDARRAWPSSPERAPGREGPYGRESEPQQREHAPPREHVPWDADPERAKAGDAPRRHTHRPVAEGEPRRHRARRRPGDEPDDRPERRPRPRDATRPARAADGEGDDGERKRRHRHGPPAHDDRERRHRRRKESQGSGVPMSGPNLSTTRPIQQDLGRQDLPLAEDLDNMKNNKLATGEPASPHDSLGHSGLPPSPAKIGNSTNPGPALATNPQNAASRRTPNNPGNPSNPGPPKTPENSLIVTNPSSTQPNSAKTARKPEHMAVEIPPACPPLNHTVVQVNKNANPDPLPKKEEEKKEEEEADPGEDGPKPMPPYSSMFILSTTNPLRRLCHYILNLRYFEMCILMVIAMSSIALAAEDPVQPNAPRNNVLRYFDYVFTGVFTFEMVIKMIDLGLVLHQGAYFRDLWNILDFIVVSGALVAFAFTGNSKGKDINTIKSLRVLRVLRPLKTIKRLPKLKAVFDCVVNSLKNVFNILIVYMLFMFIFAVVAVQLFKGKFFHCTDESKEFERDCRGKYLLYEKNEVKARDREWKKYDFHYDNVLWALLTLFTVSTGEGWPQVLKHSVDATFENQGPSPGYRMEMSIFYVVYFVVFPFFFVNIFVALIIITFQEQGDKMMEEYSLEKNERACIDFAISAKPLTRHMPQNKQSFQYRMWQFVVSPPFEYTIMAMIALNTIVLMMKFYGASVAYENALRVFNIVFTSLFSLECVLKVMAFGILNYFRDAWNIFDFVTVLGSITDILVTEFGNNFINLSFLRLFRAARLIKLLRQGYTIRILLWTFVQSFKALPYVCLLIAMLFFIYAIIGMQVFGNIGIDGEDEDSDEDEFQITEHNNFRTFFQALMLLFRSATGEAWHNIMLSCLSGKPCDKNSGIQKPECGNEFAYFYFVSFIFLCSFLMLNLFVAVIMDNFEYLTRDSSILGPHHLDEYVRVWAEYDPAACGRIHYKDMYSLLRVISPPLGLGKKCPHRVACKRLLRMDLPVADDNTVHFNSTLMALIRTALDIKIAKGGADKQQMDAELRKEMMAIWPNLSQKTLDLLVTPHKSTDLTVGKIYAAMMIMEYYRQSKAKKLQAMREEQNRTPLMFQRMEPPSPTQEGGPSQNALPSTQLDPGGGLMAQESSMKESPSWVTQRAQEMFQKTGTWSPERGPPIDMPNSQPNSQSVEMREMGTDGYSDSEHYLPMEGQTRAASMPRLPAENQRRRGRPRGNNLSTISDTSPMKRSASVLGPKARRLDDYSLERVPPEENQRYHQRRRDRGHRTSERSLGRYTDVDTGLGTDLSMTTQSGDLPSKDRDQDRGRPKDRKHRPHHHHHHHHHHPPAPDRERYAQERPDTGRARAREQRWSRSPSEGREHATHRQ

CC(C)C[C@@H]1NC(=O)[C@H](CC(N)=O)NC(=O)[C@H](CO)NC(=O)[C@H](Cc2cnc[nH]2)NC(=O)[C@H](CCC(=O)O)NC(=O)[C@H](CC(C)C)NC(=O)[C@H](Cc2cnc[nH]2)NC(=O)[C@@H]2CSSC[C@H](NC(=O)CN)C(=O)N[C@@H](CSSC[C@@H](C(N)=O)NC1=O)C(=O)N[C@@H](CO)C(=O)N[C@@H](CC(N)=O)C(=O)N1CCC[C@H]1C(=O)N[C@@H](C(C)C)C(=O)N2 [MII, α-conotoxin MII]
half-life [1]: ~10 h | half-life [2]: ~16 h

CKGKGAKCSRLMYDCCTGSCRSGKCTRNG [cyclo-MVIIA 2]
ability to displace 125I-MVIIC [3]: did not show any ability to displace | selectivity N-type over P/Q-type channel [3]: selectivity for the N-type channel over the P/Q-type channel

CKGKGAKCSRLMYDCCTGSCRSGKCTRNGLPG [cyclo-MVIIA 1]
EC50 [4]: 85 nM

GLPVCKGKGAKCSRIMYDCCTGSCRSGKCTRG [SEQ ID NO. 7]
EC50 [4]: 1.08 nM

Gly Cys Cys Ser Asp Pro Arg Cys Asn Tyr Asp His Pro Glu Ile Cys Gly Gly Ala Ala Gly Gly [cVc1.1-6]
inhibition of nicotine-evoked catecholamine release, activity relative to Vc1.1 [5]: identical, within experimental error, to that of acyclic Vc1.1

[Sec5,10]MrIA-NH2 (peptide; other documents disagree on this pair)
EC50 [6]: 1380 nM | log EC50 [6]: -5.86

χ-conotoxin MrIA-NH2 (peptide; other documents disagree on this pair)
EC50 [6]: 1810 nM | log EC50 [6]: -5.74 | EC50 [7]: 1470 nM

ω-conotoxin MVIIA (peptide)
EC50 [8]: 0.044 nM

From patent US20050256301A1 (The University of Queensland, priority 1998, published 2005)
